According to patent publication US10399972B2, “Tricyclic compounds as inhibitors of mutant IDH enzymes” (Merck Sharp & Dohme Corp., priority 2015, dated 2019):

These molecules were tested against R132H mutant IDH1 enzyme (Homo sapiens (Human), UniProt O75874, R132H) (assay: R132H IDH1 Enzymatic Assay). Conditions: 1.5 nM final, 30 min preincubation, 60 min reaction, Kinase-GLO luminescence.
Format: biochemical
Experimental: R132H IDH1 Enzymatic Assay
Each test compound (10 mM stock in DMSO) is diluted in DMSO to make a 10-point, 3-fold dilution series. 125 nL of each dilution or DMSO alone is dispensed to a 384-well Greiner Lumitrac 200 assay plate using an Echo® Liquid Handler. To each well of the plate is added 20 uL of enzyme in assay buffer or assay buffer alone. Assay buffer consists of 50 mM sodium phosphate, pH 7.0, 50 mM magnesium chloride, 50 mM sodium chloride, and 0.01% (w/v) bovine serum albumin. When present, the R132H mutant IDH1 enzyme is at a working concentration of 1.875 nM (final concentration in assay of 1.5 nM). The assay plate is allowed to incubate for 30 minutes at room temperature and 5 uL of 5× substrate mixture (2.5 uM nicotinamide adenine dinucleotide phosphate, 100 uM adenosine diphosphate, 7.5 mM glyceraldehyde-3-phosphate, 7.5 ug/mL of spinach glyceraldehyde-3-phosphate dehydrogenase, 25 nM phosphoglycerate kinase, and 5 mM alpha-ketoglutarate in assay buffer) is added to all wells. The reaction plate is incubated for 60 minutes followed by addition of 25 uL of Promega Kinase-GLO reagent to all wells and 10-minute incubation.
Luminescence is measured using a PerkinElmer Envision plate reader. The percent activity of each dilution is determined as the ratio of background corrected signal to the background corrected signal of wells receiving only DMSO. IC50 values are determined by fitting percent activity data to a four-parameter logistic dose response equation. The IC50 values of the exemplified compounds are included in Table 8.

R132H mutant IDH1 enzyme, sequence (O75874 whole entry R132H): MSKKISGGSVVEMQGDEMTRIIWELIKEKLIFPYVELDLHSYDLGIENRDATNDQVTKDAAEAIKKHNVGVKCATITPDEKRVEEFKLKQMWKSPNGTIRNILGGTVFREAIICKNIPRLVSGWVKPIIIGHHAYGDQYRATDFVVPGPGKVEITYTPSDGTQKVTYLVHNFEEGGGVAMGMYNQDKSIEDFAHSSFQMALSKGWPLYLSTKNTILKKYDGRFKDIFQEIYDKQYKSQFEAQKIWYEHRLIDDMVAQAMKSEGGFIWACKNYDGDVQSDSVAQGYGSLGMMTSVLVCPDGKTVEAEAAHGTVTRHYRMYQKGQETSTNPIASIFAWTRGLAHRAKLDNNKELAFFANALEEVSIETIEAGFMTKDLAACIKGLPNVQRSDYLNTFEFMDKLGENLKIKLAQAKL

| IC50 [nM] | SMILES |
| --- | --- |
| 36.9 | CC(C)O[C@H]1CC[C@H](C(=O)N2Cc3cccnc3Nc3cc(F)c(C4COCCO4)cc32)OC1 (stereo partly drawn) [Example 37, (8-(1,4-dioxan-2-yl)-9-fluoro-5,11-dihydro-6H-benzo[b]pyrido[2,3-e][1,4]diazepin-6-yl)((2R,5S)-5-isopropoxytetrahydro-2H-pyran-2-yl)methanone] |
| 36 | CC(C)O[C@H]1CC[C@H](C(=O)N2Cc3cccnc3Nc3cc(F)c(C4COCCO4)cc32)OC1 (stereo partly drawn) [Example 38, (8-(1,4-dioxan-2-yl)-9-fluoro-5,11-dihydro-6H-benzo[b]pyrido[2,3-e][1,4]diazepin-6-yl)((2R,5S)-5-isopropoxytetrahydro-2H-pyran-2-yl)methanone] |
| 25.5 | CC(C)O[C@H]1CC[C@H](C(=O)N2Cc3cc(F)cnc3Nc3ccc(N4CC5(CCCOC5)C4)cc32)OC1 [Example 40, (3-fluoro-8-(6-oxa-2-azaspiro[3.5]nonan-2-yl)-5,11-dihydro-6H-benzo[b]pyrido[2,3-e][1,4]diazepin-6-yl)((2R,5S)-5-isopropoxytetrahydro-2H-pyran-2-yl)methanone] |
| 21 | CC(C)O[C@H]1CC[C@H](C(=O)N2Cc3cc(F)cnc3Nc3ccc(N4C[C@H]5COC[C@@H](C4)O5)cc32)OC1 [Example 41, (8-((1R,5S)-3,9-dioxa-7-azabicyclo[3.3.1]nonan-7-yl)-3-fluoro-5,11-dihydro-6H-benzo[b]pyrido[2,3-e][1,4]diazepin-6-yl)((2R,5S)-5-isopropoxytetrahydro-2H-pyran-2-yl)methanone] |
| 13.6 | CC(C)O[C@H]1CC[C@H](C(=O)N2Cc3cc(F)cnc3Nc3ccc(NCC4(CCl)CCCOC4)cc32)OC1 (stereo partly drawn) [Example 42, (8-(((3-(chloromethyl)tetrahydro-2H-pyran-3-yl)methyl)amino)-3-fluoro-5,11-dihydro-6H-benzo[b]pyrido[2,3-e][1,4]diazepin-6-yl)((2R,5S)-5-isopropoxytetrahydro-2H-pyran-2-yl)methanone] |
| 87 | CCS(=O)(=O)N1CCC(C(=O)N2Cc3cc(F)cnc3Nc3ccc(N4CC5CCC4CO5)cc32)CC1 (centres unmarked) [Example 43, (8-(2-oxa-5-azabicyclo[2.2.2]octan-5-yl)-3-fluoro-5,11-dihydro-6H-benzo[b]pyrido[2,3-e][1,4]diazepin-6-yl)(1-(ethylsulfonyl)piperidin-4-yl)methanone] |
| 11.4 | CC(C)O[C@H]1CC[C@H](C(=O)N2Cc3cc(F)cnc3Nc3cc(F)c(N4CC5CCC4CO5)cc32)OC1 (stereo partly drawn) [Example 44, (8-(2-oxa-5-azabicyclo[2.2.2]octan-5-yl)-3,9-difluoro-5,11-dihydro-6H-benzo[b]pyrido[2,3-e][1,4]diazepin-6-yl)((2R,5S)-5-isopropoxytetrahydro-2H-pyran-2-yl)methanone] |
| 18.3 | CC(C)O[C@H]1CC[C@H](C(=O)N2Cc3cc(F)cnc3Nc3cc(F)c(N4CC5(CCCOC5)C4)cc32)OC1 [Example 45, (3,9-Difluoro-8-(6-oxa-2-azaspiro[3.5]nonan-2-yl)-5H-benzo[b]pyrido[2,3-e][1,4]diazepin-6(11H)-yl)((2R,5S)-5-isopropoxytetrahydro-2H-pyran-2-yl)methanone] |
| 17.9 | CC(C)O[C@H]1CC[C@H](C(=O)N2Cc3cc(F)cnc3Nc3cc(F)c(N4C[C@@H]5C[C@H]4CO5)cc32)OC1 [Example 46, (8-((1S,4S)-2-oxa-5-azabicyclo[2.2.1]heptan-5-yl)-3,9-difluoro-5,11-dihydro-6H-benzo[b]pyrido[2,3-e][1,4]diazepin-6-yl)((2R,5S)-5-isopropoxytetrahydro-2H-pyran-2-yl)methanone] |
| 10 | CC(C)O[C@H]1CC[C@H](C(=O)N2Cc3cc(F)cnc3Nc3ccc(N4C[C@H]5CC[C@@H]4CO5)cc32)OC1 [Example 48, (8-((1R,4R)-2-oxa-5-azabicyclo[2.2.2]octan-5-yl)-3-fluoro-5,11-dihydro-6H-benzo[b]pyrido[2,3-e][1,4]diazepin-6-yl)((2R,5S)-5-isopropoxytetrahydro-2H-pyran-2-yl)methanone] |
| 3.5 | Cn1nccc1-c1cc2c(cc1F)Nc1ncc(F)cc1CN2C(=O)C1CCN(CC(F)(F)F)CC1 [Example 50, (3,9-Difluoro-8-(1-methyl-1H-pyrazol-5-yl)-5,11-dihydro-6H-benzo[b]pyrido[2,3-e][1,4]diazepin-6-yl)(1-(2,2,2-trifluoroethyl)piperidin-4-yl)methanone] |

Second part, the molecule before the results:

| SMILES | IC50 [nM] |
| --- | --- |
| CC(C)O[C@H]1CC[C@H](C(=O)N2Cc3cc(F)cnc3Nc3cc(F)c(N4CC5(CCCOC5)C4)cc32)CC1 [Example 25, [3,9-difluoro-8-(6-oxa-2-azaspiro[3.5]non-2-yl)-5,11-dihydro-6H-pyrido[2,3-b][1,5]benzodiazepin-6-yl][trans-4-(propan-2-yloxy)cyclohexyl]methanone] | 7.8 |
| CC(C)O[C@H]1CC[C@H](C(=O)N2Cc3cc(F)cnc3Nc3cc(F)c(N4C5CCC4COC5)cc32)CC1 [Example 26, [3,9-difluoro-8-(3-oxa-8-azabicyclo[3.2.1]oct-8-yl)-5,11-dihydro-6H-pyrido[2,3-b][1,5]benzodiazepin-6-yl][trans-4-(propan-2-yloxy)cyclohexyl]methanone] | 13.8 |
| O=C(C1CCN(CC(F)(F)F)CC1)N1Cc2cccnc2Nc2cc(F)c(N3C[C@@H]4C[C@H]3CO4)cc21 [Example 27, (8-((1S,4S)-2-oxa-5-azabicyclo[2.2.1]heptan-5-yl)-9-fluoro-5,11-dihydro-6H-benzo[b]pyrido[2,3-e][1,4]diazepin-6-yl)(1-(2,2,2-trifluoroethyl)piperidin-4-yl)methanone] | 27.5 |
| O=C(C1CCN(CC(F)(F)F)CC1)N1Cc2cccnc2Nc2cc(F)c(N3[C@@H]4CO[C@H]5[C@@H]4OC[C@H]53)cc21 [Example 28, (9-fluoro-8-((3R,3aR,6R,6aR)-hexahydro-3,6-epiminofuro[3,2-b]furan-7-yl)-5,11-dihydro-6H-benzo[b]pyrido[2,3-e][1,4]diazepin-6-yl)(1-(2,2,2-trifluoroethyl)piperidin-4-yl)methanone] | 27.6 |
| O=C(C1CCN(CC(F)(F)F)CC1)N1Cc2cc(F)cnc2Nc2cc(F)c(N3CC4CCC3CO4)cc21 (centres unmarked) [Example 29, (8-(2-oxa-5-azabicyclo[2.2.2]octan-5-yl)-3,9-difluoro-5,11-dihydro-6H-benzo[b]pyrido[2,3-e][1,4]diazepin-6-yl)(1-(2,2,2-trifluoroethyl)piperidin-4-yl)methanone] | 9.9 |
| CO[C@H]1C[C@H]2CC[C@@H](C1)N2c1cc2c(cc1F)Nc1ncc(F)cc1CN2C(=O)C1CCN(CC(F)(F)F)CC1 [Example 30, (3,9-difluoro-8-((1R,3r,5S)-3-methoxy-8-azabicyclo[3.2.1]octan-8-yl)-5,11-dihydro-6H-benzo[b]pyrido[2,3-e][1,4]diazepin-6-yl)(1-(2,2,2-trifluoroethyl)piperidin-4-yl)methanone] | 14.1 |
| O=C(C1CCN(CC(F)(F)F)CC1)N1Cc2cc(F)cnc2Nc2cc(F)c(N3C[C@H]4CC[C@@H]3CO4)cc21 [Example 31, (8-((1R,4R)-2-oxa-5-azabicyclo[2.2.2]octan-5-yl)-3,9-difluoro-5,11-dihydro-6H-benzo[b]pyrido[2,3-e][1,4]diazepin-6-yl)(1-(2,2,2-trifluoroethyl)piperidin-4-yl)methanone] | 18 |
| O=C(C1CCN(CC(F)(F)F)CC1)N1Cc2cc(F)cnc2Nc2cc(F)c(N3C[C@@H]4CC[C@H]3CO4)cc21 [Example 32, (8-((1S,4S)-2-oxa-5-azabicyclo[2.2.2]octan-5-yl)-3,9-difluoro-5,11-dihydro-6H-benzo[b]pyrido[2,3-e][1,4]diazepin-6-yl)(1-(2,2,2-trifluoroethyl)piperidin-4-yl)methanone] | 18.1 |
| CC(C)O[C@H]1CC[C@H](C(=O)N2Cc3cc(F)cnc3Nc3ccc([C@H]4COCCO4)cc32)OC1 [Example 33, (8-((S)-1,4-Dioxan-2-yl)-3-fluoro-5,11-dihydro-6H-benzo[b]pyrido[2,3-e][1,4]diazepin-6-yl)((2R,5S)-5-isopropoxytetrahydro-2H-pyran-2-yl)methanone] | 21.8 |
| CC(C)O[C@H]1CC[C@H](C(=O)N2Cc3cc(F)cnc3Nc3ccc([C@@H]4COCCO4)cc32)OC1 [Example 34, (8-((R)-1,4-dioxan-2-yl)-3-fluoro-5,11-dihydro-6H-benzo[b]pyrido[2,3-e][1,4]diazepin-6-yl)((2R,5S)-5-isopropoxytetrahydro-2H-pyran-2-yl)methanone] | 23.4 |
| CO[C@H]1C[C@H]2CC[C@@H](C1)N2c1ccc2c(c1)N(C(=O)[C@H]1CC[C@H](OC(C)C)CO1)Cc1cc(F)cnc1N2 [Example 39, (3-fluoro-8-((1R,3S,5S)-3-methoxy-8-azabicyclo[3.2.1]octan-8-yl)-5,11-dihydro-6H-benzo[b]pyrido[2,3-e][1,4]diazepin-6-yl)((2R,5S)-5-isopropoxytetrahydro-2H-pyran-2-yl)methanone] | 10.4 |
| CO[C@H]1C[C@H]2CC[C@@H](C1)N2c1cc2c(cc1F)Nc1ncc(F)cc1CN2C(=O)[C@H]1CC[C@H](OC(C)C)CO1 [Example 47, (3,9-difluoro-8-((1R,3S,5S)-3-methoxy-8-azabicyclo[3.2.1]octan-8-yl)-5,11-dihydro-6H-benzo[b]pyrido[2,3-e][1,4]diazepin-6-yl)((2R,5S)-5-isopropoxytetrahydro-2H-pyran-2-yl)methanone] | 15.8 |
